≈ marks a conversion by molar mass, not a printed value. Blank lines part the entries; values can stand above or below the compound they belong to.
Columns and labels:
[1] = Drug level in pH 7.4 PBS treated with camptothecin-lysine at 1 mM at 37 degC after 3 days by RP-HPLC analysis; type: physicochemical; conditions: buffer, pH 7.4, 72 h, 1000 µM
[2] = Drug level in pH 7.4 PBS treated with camptothecin-lysine nanotube at 37 degC after 1 week by RP-HPLC analysis; type: physicochemical; conditions: buffer, pH 7.4, 168 h
[3] = Drug level in pH 9 borate buffer treated with camptothecin-lysine at 1 mM at 37 degC by RP-HPLC analysis; type: physicochemical; conditions: pH 9, 1000 µM
[4] = tested on: NCI-H460; assay: Cytotoxicity against human NCI-H460 cells assessed as cell viability after 96 hrs by MTT assay; type: functional, cell-based; conditions: NCI-H460, 96 h
[5] = Induction of self assembly in pH 7.4 PBS assessed as diameter of nanotube at 1 mM after 72 hrs by transmission electron microscopy; type: physicochemical; conditions: buffer, pH 7.4, 72 h, 1000 µM
[6] = Induction of self assembly in water at pH 7 assessed as diameter of nanotube at 1 mM after 72 hrs by transmission electron microscopy; type: physicochemical; conditions: buffer, pH 7, 72 h, 1000 µM
[7] = Critical aggregation concentration of the compound in pH 7.4 PBS by Nile Red dye based luminescence spectrometric method; type: ADME; conditions: buffer
[8] = tested on: NCI-H23; assay: Cytotoxicity against human NCI-H23 cells assessed as cell viability after 96 hrs by MTT assay; type: functional, cell-based; conditions: NCI-H23, 96 h
[9] = Induction of self assembly in pH 7.4 PBS assessed as zeta potential of nanotube at 1 mM after 1 day; type: physicochemical; conditions: buffer, pH 7.4, 24 h, 1000 µM
[10] = Induction of self assembly in pH 7.4 PBS assessed as diameter of nanotube at 10 mM after 24 hrs by transmission electron microscopy; type: physicochemical; conditions: buffer, pH 7.4, 24 h, 10000 µM
[11] = Induction of J-type self aggregation in pH 7.4 PBS at 250 uM after 3 days by UV-Vis spectrometry; type: physicochemical; conditions: buffer, pH 7.4, 72 h
[12] = Solubility of the compound in pH 7.4 PBS; type: physicochemical
[13] = tested on: A549; assay: Cytotoxicity against human A549 cells assessed as cell viability after 96 hrs by MTT assay; type: functional, cell-based; conditions: A549, 96 h
[14] = Induction of non specific self aggregation in pH 7.4 PBS at 250 uM; type: physicochemical; conditions: buffer, pH 7.4, 250 µM
[15] = Induction of self assembly in pH 7.4 PBS assessed as beta-sheet interaction within assembly at 20 mM lyophilized for 3 days followed by redissolved in D2O by fourier transform infrared spectroscopic method; type: physicochemical; conditions: buffer, pH 7.4, 72 h, 20000 µM
[16] = Solubility of the compound in water; type: physicochemical
[17] = Induction of self assembly in pH 7.4 PBS assessed as thickness of nanotube walls at 1 mM after 72 hrs by transmission electron microscopy; type: physicochemical; conditions: buffer, pH 7.4, 72 h, 1000 µM
[18] = tested on: A549; assay: Drug uptake in human A549 cells at 10 mM after 8 hrs by flow cytometric method; type: ADME, cell-based; conditions: a549, 8 h, 10000 µM
[19] = Critical aggregation concentration of the compound in water by Nile Red dye based luminescence spectrometric method; type: ADME; conditions: buffer
[20] = Drug metabolism in pH 7.4 PBS assessed as remaining parent compound level at 1 mM at 37 degC after 3 days by RP-HPLC analysis; type: physicochemical; conditions: read-out: Stability
[21] = Drug level in pH 7.4 PBS treated with camptothecin-lysine at 0.1 mM at 37 degC after 15 hrs by RP-HPLC analysis; type: physicochemical; conditions: buffer, pH 7.4, 15 h, 100 µM
[22] = tested on: A549; assay: Drug uptake in human A549 cells at 10 mM after 12 to 24 hrs by flow cytometric method; type: ADME, cell-based; conditions: a549, 10000 µM
[23] = Drug level in pH 6 PBS treated with camptothecin-lysine at 0.1 mM at 37 degC after 15 hrs by RP-HPLC analysis; type: physicochemical; conditions: buffer, pH 6, 15 h, 100 µM

Compound: CC[C@@](O)(C(=O)O)c1cc2n(c(=O)c1CO)Cc1cc3ccccc3nc1-2
- Drug metabolism [1]: metabolite_detected
- Drug metabolism [2]: metabolite_detected
- Drug metabolism [3]: metabolite_detected

- Activity [5]: 70 nm
- Activity [6]: 40 nm
- CAC [7]: 160 µM
- Activity [9]: 19.7 mV
- Activity [10]: < 500 nm
- Activity [11]: Active
- solubility [12]: 5140 µg/mL (≈ 8.93 mM)
- Activity [14]: Active
- Activity [15]: Not Active
- solubility [16]: 12100 µg/mL (≈ 21 mM)
- Activity [17]: 7.5 nm
- Drug uptake [18]: Active
- CAC [19]: 200 µM
- remaining at 72 h, 1000 µM [20]: 39%
Compound: CC[C@@]1(OC(=O)CCC(=O)NCCCC[C@H](N)C(N)=O)C(=O)OCc2c1cc1n(c2=O)Cc2cc3ccccc3nc2-1
- IC50 [4]: 430 nM
- IC50 [8]: 120 nM
- IC50 [13]: 1120 nM

Compound: CC[C@@]1(O)C(=O)OCc2c1cc1n(c2=O)Cc2cc3ccccc3nc2-1 [CAMPTOTHECIN]
- IC50 [4]: 190 nM
- Drug metabolism [1]: metabolite_detected
- Drug metabolism [2]: metabolite_detected
- IC50 [8]: 70 nM
- Drug metabolism [21]: metabolite_detected
- IC50 [13]: 350 nM
- Drug uptake [22]: Active
- solubility [16]: 3 µg/mL (≈ 0.00861 mM)
- Drug uptake [18]: Active
- Drug metabolism [23]: metabolite_detected

Source: ChEMBL document CHEMBL3797142, “The self-assembly of a camptothecin-lysine nanotube” (Bioorg Med Chem Lett, 2016)
